Experimental data reported in US12030878B2 (BRISTOL-MYERS SQUIBB COMPANY, priority 2017, dated 2024).

How the values were obtained:
Type in all cases: cell-based
[1] = target: T1, human TLR7 (Homo sapiens, UniProt Q9NYK1); assay: TLR7 inhibition reporter assay (HEK-Blue SEAP); details: HEK-Blue cells overexpressing human TLR7, stimulated with gardiquimod 7.5 μM, 22 hour incubation
T1 construct: host or cells: HEK-Blue cells
T1 sequence (Q9NYK1 27-1049): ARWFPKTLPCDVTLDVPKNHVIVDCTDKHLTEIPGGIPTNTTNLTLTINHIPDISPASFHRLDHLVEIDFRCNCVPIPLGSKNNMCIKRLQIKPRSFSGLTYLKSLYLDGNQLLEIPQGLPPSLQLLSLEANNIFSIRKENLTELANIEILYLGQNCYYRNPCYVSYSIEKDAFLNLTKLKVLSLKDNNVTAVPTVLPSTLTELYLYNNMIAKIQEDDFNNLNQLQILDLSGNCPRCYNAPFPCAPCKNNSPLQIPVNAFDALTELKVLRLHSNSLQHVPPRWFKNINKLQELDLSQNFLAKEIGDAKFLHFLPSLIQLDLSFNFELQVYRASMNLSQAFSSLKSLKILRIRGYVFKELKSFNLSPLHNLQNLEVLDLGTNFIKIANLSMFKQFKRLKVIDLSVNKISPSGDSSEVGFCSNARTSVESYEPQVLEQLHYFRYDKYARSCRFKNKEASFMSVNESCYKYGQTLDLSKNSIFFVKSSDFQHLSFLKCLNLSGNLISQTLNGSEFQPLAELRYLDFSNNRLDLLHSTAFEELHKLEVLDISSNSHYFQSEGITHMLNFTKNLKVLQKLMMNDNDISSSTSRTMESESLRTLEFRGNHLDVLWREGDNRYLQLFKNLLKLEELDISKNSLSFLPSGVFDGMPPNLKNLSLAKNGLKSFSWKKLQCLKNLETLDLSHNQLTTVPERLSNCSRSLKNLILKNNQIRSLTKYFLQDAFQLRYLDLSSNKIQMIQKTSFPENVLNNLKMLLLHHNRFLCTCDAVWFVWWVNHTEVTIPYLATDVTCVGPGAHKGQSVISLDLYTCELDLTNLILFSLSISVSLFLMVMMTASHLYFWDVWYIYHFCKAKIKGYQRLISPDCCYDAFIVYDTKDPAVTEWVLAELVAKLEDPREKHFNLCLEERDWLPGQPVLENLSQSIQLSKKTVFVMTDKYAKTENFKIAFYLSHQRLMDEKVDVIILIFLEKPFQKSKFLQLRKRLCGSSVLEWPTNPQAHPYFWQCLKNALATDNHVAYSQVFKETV
Procedure, shortened: (§1)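 Stimulation followed a 30 min room-temperature compound exposure (final 0.05 nM-50 μM): TLR7 cells with 7.5 μM gardiquimod, TLR8 with 15.9 μM R848, TLR9 with 5 nM ODN2006. After 22 h at 37 °C, secreted alkaline phosphatase was detected colorimetrically and inhibition calculated against DMSO and known-inhibitor controls.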

[2] = target: T2, human TLR8 (Homo sapiens, UniProt Q9NR97); assay: TLR8 inhibition reporter assay (HEK-Blue SEAP); details: HEK-Blue cells overexpressing human TLR8, stimulated with R848 15.9 μM, 22 hour incubation
T2 construct: host or cells: HEK-Blue cells
T2 sequence (Q9NR97 27-1041): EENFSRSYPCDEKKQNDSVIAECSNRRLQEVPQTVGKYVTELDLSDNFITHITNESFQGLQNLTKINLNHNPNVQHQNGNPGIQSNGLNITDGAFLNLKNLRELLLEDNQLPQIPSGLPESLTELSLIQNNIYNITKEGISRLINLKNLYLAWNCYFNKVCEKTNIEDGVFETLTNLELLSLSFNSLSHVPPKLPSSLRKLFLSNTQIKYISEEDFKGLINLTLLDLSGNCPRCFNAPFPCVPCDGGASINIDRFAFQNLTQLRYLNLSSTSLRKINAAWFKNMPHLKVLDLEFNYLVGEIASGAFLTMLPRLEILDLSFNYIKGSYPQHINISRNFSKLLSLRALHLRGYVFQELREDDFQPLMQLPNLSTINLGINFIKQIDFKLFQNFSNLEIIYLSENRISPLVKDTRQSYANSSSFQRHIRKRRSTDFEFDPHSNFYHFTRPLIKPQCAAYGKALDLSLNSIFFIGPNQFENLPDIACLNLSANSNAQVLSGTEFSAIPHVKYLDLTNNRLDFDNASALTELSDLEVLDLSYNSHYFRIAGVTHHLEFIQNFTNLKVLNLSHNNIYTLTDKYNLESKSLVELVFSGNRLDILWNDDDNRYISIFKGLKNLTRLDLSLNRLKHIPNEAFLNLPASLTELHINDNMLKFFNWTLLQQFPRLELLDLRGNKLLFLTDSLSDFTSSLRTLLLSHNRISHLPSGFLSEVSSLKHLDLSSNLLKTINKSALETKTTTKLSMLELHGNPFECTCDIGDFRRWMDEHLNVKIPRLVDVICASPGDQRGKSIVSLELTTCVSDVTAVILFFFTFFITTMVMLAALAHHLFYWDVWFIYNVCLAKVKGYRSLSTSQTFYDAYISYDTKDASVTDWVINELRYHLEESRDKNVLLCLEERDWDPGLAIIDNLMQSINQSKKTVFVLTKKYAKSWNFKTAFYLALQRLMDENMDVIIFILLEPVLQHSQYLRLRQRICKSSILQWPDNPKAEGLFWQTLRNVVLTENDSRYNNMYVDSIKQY
Procedure, shortened: as §1

[3] = target: T3, human TLR9 (Homo sapiens, UniProt Q9NR96); assay: TLR9 inhibition reporter assay (HEK-Blue SEAP); details: HEK-Blue cells overexpressing human TLR9, stimulated with ODN2006 5 nM, 22 hour incubation
T3 construct: host or cells: HEK-Blue cells
T3 sequence (Q9NR96 26-1032): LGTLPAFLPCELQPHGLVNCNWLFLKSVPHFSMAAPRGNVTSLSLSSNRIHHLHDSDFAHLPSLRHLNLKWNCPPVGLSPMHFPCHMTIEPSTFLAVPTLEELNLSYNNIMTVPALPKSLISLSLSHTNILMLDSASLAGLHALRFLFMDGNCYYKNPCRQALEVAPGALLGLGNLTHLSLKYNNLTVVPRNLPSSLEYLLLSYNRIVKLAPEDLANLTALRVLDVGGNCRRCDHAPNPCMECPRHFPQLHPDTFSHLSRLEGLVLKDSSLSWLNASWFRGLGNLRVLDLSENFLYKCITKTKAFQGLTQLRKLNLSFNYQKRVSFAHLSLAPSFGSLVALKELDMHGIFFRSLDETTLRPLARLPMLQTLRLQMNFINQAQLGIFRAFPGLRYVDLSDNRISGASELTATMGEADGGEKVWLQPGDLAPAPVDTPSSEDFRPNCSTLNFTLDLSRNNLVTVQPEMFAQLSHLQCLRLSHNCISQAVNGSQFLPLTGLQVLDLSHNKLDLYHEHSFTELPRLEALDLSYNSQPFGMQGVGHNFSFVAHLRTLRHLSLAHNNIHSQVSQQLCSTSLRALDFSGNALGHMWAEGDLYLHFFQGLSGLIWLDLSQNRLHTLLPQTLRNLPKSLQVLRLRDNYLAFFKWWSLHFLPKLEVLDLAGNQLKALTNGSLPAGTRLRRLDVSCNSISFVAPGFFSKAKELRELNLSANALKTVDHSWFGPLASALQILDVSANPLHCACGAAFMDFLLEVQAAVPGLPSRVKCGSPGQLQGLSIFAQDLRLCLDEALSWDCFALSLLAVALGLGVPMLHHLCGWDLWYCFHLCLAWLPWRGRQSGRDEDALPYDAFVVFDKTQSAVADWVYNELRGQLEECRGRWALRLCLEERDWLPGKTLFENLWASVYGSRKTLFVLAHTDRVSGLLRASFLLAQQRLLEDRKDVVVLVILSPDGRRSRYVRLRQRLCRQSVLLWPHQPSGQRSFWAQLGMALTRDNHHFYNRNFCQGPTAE
Procedure, shortened: as §1

Row | SMILES | IC50 [1] [nM] | IC50 [2] [nM] | IC50 [3] [nM]
1 | Cc1cc(-c2[nH]c3ccc(OCC(=O)N4CC5(CCNCC5)C4)cc3c2C(C)C)ccn1 [Example 141, 2-((3-isopropyl-2-(2-methylpyridin-4-yl)-1H-indol-5-yl)oxy)-1-(2,7-diazaspiro[3.5]nonan-2-yl)ethan-1-one] | 427 | 186 | 625
2 | Cc1c(-c2[nH]c3ccc(OCC4CCN(C(=O)CN(C)C)CC4)cc3c2C(C)C)cn(C)c(=O)c1C [Example 103, 5-(5-((1-(dimethylglycyl)piperidin-4-yl)methoxy)-3-isopropyl-1H-indol-2-yl)-1,3,4-trimethylpyridin-2(1H)-one] | 12.3 | 14.9 | 5400
3 | COc1ccc(-c2[nH]c3ccc(OCC(=O)NCCN)cc3c2C(C)C)cc1OC [Example 117, N-(2-aminoethyl)-2-((2-(3,4-dimethoxyphenyl)-3-isopropyl-1H-indol-5-yl)oxy)acetamide] | 120 | 36.1 | 1570
4 | CCc1c(-c2ccnc(C)c2)[nH]c2ccc(OC3CCN(C(C)C)C3)cc12 (stereo not drawn) [Example 190, 3-ethyl-5-((1-isopropylpyrrolidin-3-yl)oxy)-2-(2-methylpyridin-4-yl)-1H-indole] | 954 | 118 | 1220
5 | CCc1c(-c2ccnc(C)c2)[nH]c2ccc(OCC3CCN(C)CC3)cc12 [Example 183, 3-ethyl-5-((1-methylpiperidin-4-yl)methoxy)-2-(2-methylpyridin-4-yl)-1H-indole] | 131 | 12 | 512
6 | CNCC(=O)N1CCC(Oc2ccc3[nH]c(-c4cc(C)nc(C)c4)c(C(C)C)c3c2)CC1 [Example 109, 1-(4-((2-(2,6-dimethylpyridin-4-yl)-3-isopropyl-H-indol-5-yl)oxy)piperidin-1-yl)-2-(methylamino)ethanone] | 1.9 | 10 | 300
7 | CCc1c(-c2ccnc(C)c2)[nH]c2ccc(OC3CCNCC3)cc12 [Example 163, 3-ethyl-2-(2-methylpyridin-4-yl)-5-(piperidin-4-yloxy)-1H-indole] | 146 | 9 | 1810
8 | Cc1c(-c2[nH]c3ccc(OC4CCN(C(C)C)CC4)cc3c2C(C)C)cn(C)c(=O)c1C [Example 48, 5-(3-isopropyl-5-((1-isopropylpiperidin-4-yl)oxy)-1H-indol-2-yl)-1,3,4-trimethylpyridin-2(1H)-one] | 6.9 | 1 | 5040
9 | Cc1cc(-c2[nH]c3ccc(OCc4ccncc4)cc3c2C(C)C)ccn1 [Example 174, 3-isopropyl-2-(2-methylpyridin-4-yl)-5-(pyridin-4-ylmethoxy)-1H-indole] | 3590 | 3020 | > 50000
10 | Cc1cc(-c2[nH]c3ccc(O[C@@H]4CCNC4)cc3c2C(C)C)ccn1 [Example 157, (R)-3-isopropyl-2-(2-methylpyridin-4-yl)-5-(pyrrolidin-3-yloxy)-1H-indole] | 8.7 | 7 | 1910
11 | Cc1cc(-c2[nH]c3ccc(OCc4ccccc4)cc3c2C(C)C)ccn1 [Example 165, 5-(benzyloxy)-3-isopropyl-2-(2-methylpyridin-4-yl)-1H-indole] | 5920 | 1290 | > 50000
12 | COc1ccc(-c2[nH]c3ccc(OCCC4CCNCC4)cc3c2C(C)C)cc1OC [Example 158, 2-(3,4-dimethoxyphenyl)-3-isopropyl-5-(2-(piperidin-4-yl)ethoxy)-1H-indole] | 49 | 27.6 | 2990
13 | CCc1c(-c2ccnc(C)c2)[nH]c2ccc(OCCN3CCCC3)cc12 [Example 192, 3-ethyl-2-(2-methylpyridin-4-yl)-5-(2-(pyrrolidin-1-yl)ethoxy)-H-indole] | 1030 | 50.8 | 774
14 | Cc1c(-c2[nH]c3ccc(OC4CCN(C)CC4)cc3c2C(C)C)cn(C)c(=O)c1Cl [Example 46, 3-chloro-5-(3-isopropyl-5-((1-methylpiperidin-4-yl)oxy)-1H-indol-2-yl)-1,4-dimethylpyridin-2(1H)-one] | 5.6 | 3.4 | 3750
15 | Cc1cc(-c2[nH]c3ccc(OCC4CCN(C(C)C)CC4)cc3c2C(C)C)cc(C)n1 [Example 35, 2-(2,6-dimethylpyridin-4-yl)-3-isopropyl-5-((1-isopropylpiperidin-4-yl)methoxy)-1H-indole] | 4.9 | 2.7 | 317
16 | Cc1cc(-c2[nH]c3ccc(OC4CCN(CCCO)CC4)cc3c2C(C)C)cc(C)n1 [Example 72, 3-(4-((2-(2,6-dimethylpyridin-4-yl)-3-isopropyl-1H-indol-5-yl)oxy)piperidin-1-yl)propan-1-ol] | 3.8 | 1.3 | 528
